Values joined by “and” are separate entries in the source; they are usually repeats but may differ in a detail not shown here. Equal values may be shown once.
System: 496974-208-R-J2-PDC complex spheroids, growth % test/control
Test: Anticancer human tumor 496974-208-R-J2-PDC patient-derived pancreatic carcinoma cell line growth inhibition [CLK]
Conditions: for viability, T/C: stronger effect = lower value; active means viability on the fitted dose curve at most 10% of control; inactive means the rest
Description: A high-throughput screen of multi-cell type tumor spheroids was designed to identify active combinations of […] and targeted small molecules. Complex spheroids include a stromal component modeled by human endothelial cells (HUVEC) and fibroblasts modeled by human mesenchymal stem cells (MSCs). The concentration ranges selected for each drug and investigational agent were based upon clinically achievable concentrations if the clinical Cmax of the agent was known.
Compounds. The drugs and investigational agents: cirtuvivint (SM08502; NSC835563), CC-671 (NSC850746), vemurafenib (NSC761431), tapotoclax (NSC804041), sotorasib (NSC818433), adagrasib (NSC831453), MRTX-1133 (NSC836407), BAY2416964 (NSC825713), copanlisib (NSC816437), inavolisib (NSC800729), abemaciclib (NSC768073), osimertinib (NSC779217), entinostat (NSC756642), eltanexor (KPT-8602, NSC794443), venetoclax (NSC766270), ceralasertib (NSC777638), bortezomib (NSC756655), olaparib (NSC753686), talazoparib (NSC767125), alisertib (NSC759677), peposertib (NSC802822), gemcitabine (NSC613327), 5-fluorouracil (NSC19893), SN-38 (NSC673596), oxaliplatin (NSC266046), paclitaxel (NSC125973), and doxorubicin (NSC123127), were obtained from the National Cancer Institute (NCI) Developmental Therapeutics Program Chemical Repository. The FDA-approved anticancer drug set is available from the Developmental Therapeutics Program at https://dtp.cancer.gov/organization/dscb/obtaining/available plates.htm. […] The stock solutions were prepared in dimethyl sulfoxide (DMSO, Sigma-Aldrich, St. Louis, MO, cat. D2650), except for the platinum complexes which were prepared in saline (Quality Biological, Gaithersburg, MD, cat. 114-055-101), at 800-fold the tested concentration and stored at -70 degrees C prior to their use. All drugs and investigational agents were tested over a range starting from a high concentration at or near the clinical Cmax and decreasing in half-log increments. If the clinical Cmax for an agent had not been determined, the highest concentration tested was 10 microM.
Cell Culture. All cells were maintained in an incubator at 37 degrees C and 5% CO2 with 95% humidity. The PDC lines were cultured according to standard operating procedures established by the NCI PDMR. Briefly, all PDCs were thawed and cultured in Matrigel-coated flasks prepared with a working solution of 1X Ham's F-12 nutrient mix, without supplementation (Invitrogen, Waltham, MA, cat. 11765054), 100 U/mL penicillin-streptomycin (Invitrogen, cat. 15140122), and 2.5% Matrigel (Corning Inc., Corning, NY, cat. 354248) for the first three passages. The 947758-054-R-J2-PDC line was cultured in 6B/Colon 1A media, which includes advanced DMEM/F-12 (Thermo Fisher Scientific, cat. 12634028), 10 mM HEPES (Thermo Fisher Scientific, cat. 15630080), 1X GlutaMAX supplement (Thermo Fisher Scientific, cat. 35050061), 0.1 mg/mL primocin (InvivoGen, cat. ant-pm-2), 10% defined fetal bovine serum, heat inactivated (HyClone Laboratories Inc., cat. SH30070.03HI), 1.25 mM N-Acetyl-L-cysteine (Sigma-Aldrich, cat. A9165), 10 mM nicotinamide (Sigma-Aldrich, cat. N0636), 1X B-27 supplement (Thermo Fisher Scientific, cat. 17504044), 1X N-2 supplement (Thermo Fisher Scientific, cat. 17502048), and 10 microM Y-27632 dihydrochloride (Tocris Bioscience, cat. 1254). The 876862-298-R-J1-PDC was cultured in 6E media, which includes all 6B/Colon 1A media components plus 50% L-WRN conditioned media (ATCC, cat. CRL-3276), 50 ng/mL recombinant human EGF recombinant protein (hEGF; Thermo Fisher Scientific, cat. PHG0311), 10 ng/mL recombinant human fibroblast growth factor 10 (hGFG-10; PeproTech, cat. 100-26), 1 ng/mL recombinant human fibroblast growth factor 2 (hFGF-2; PeproTech, cat. 100-18B), and 1 µM prostaglandin E2 (PGE2; Tocris, cat. 2296). The 227483-062-R1-J1-PDC line was cultured in Panc media, containing all 6E components except hFGF-2, with the addition of 500 nM SB-431542 (Selleckchem, cat. S1067) and 10 nM gastrin (Tocris, cat. 3006). […]

[1] = curve of first compound, second compound 0.0316 µM
[2] = curve of first compound, second compound 0.1 µM
[3] = curve of first compound, second compound 0.316 µM
[4] = curve of first compound, second compound 1 µM
[5] = curve of first compound, second compound 3.16 µM
[6] = curve of first compound, second compound 10 µM
[7] = second compound 0.0316 µM, first compound 0.0316 µM
[8] = second compound 0.0316 µM, first compound 0.1 µM
[9] = second compound 0.1 µM, first compound 0.0316 µM
[10] = second compound 0.1 µM, first compound 0.1 µM
[11] = second compound 0.316 µM, first compound 0.0316 µM
[12] = second compound 0.316 µM, first compound 0.1 µM
[13] = second compound 1 µM, first compound 0.0316 µM
[14] = second compound 1 µM, first compound 0.1 µM
[15] = second compound 3.16 µM, first compound 0.0316 µM
[16] = second compound 3.16 µM, first compound 0.1 µM
[17] = second compound 10 µM, first compound 0.0316 µM
[18] = second compound 10 µM, first compound 0.1 µM
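Further: spheroids exposed to the drugs for 7 days before readout.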
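Wherever viability, T/C is given: 100% = DMSO vehicle control wells.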

Cn1ncnc1[C@H]1c2n[nH]c(=O)c3cc(F)cc(c23)N[C@@H]1c1ccc(F)cc1 + CN1CCN(c2cc(C(=O)Nc3cc4cc(-c5cnn(C)c5)ccc4cn3)ccn2)CC1
> 100 nM: IC50 [1] | IC50 [2]
< 0.316 nM: IC50 [3] | IC50 [4] | IC50 [5] | IC50 [6]
inactive: viability, T/C (second compound 0.0316 µM, first compound 0.000316 µM) 112% | viability, T/C (second compound 0.0316 µM, first compound 0.001 µM) 106% | viability, T/C (second compound 0.0316 µM, first compound 0.00316 µM) 99.2% | viability, T/C (second compound 0.0316 µM, first compound 0.01 µM) 94.9% | viability, T/C [7] 107% | viability, T/C [8] 96.5% | viability, T/C (second compound 0.1 µM, first compound 0.000316 µM) 84.8% | viability, T/C (second compound 0.1 µM, first compound 0.001 µM) 88.5% | viability, T/C (second compound 0.1 µM, first compound 0.00316 µM) 85.1% | viability, T/C (second compound 0.1 µM, first compound 0.01 µM) 79.6% | viability, T/C [9] 84.1% | viability, T/C [10] 63.7%
active: viability, T/C (second compound 0.316 µM, first compound 0.000316 µM) 5.57% | viability, T/C (second compound 0.316 µM, first compound 0.001 µM) 7.18% | viability, T/C (second compound 0.316 µM, first compound 0.00316 µM) 5.28% | viability, T/C (second compound 0.316 µM, first compound 0.01 µM) 6.84% | viability, T/C [11] 6.51% | viability, T/C [12] 9.2% | viability, T/C (second compound 1 µM, first compound 0.000316 µM) 0.52% | viability, T/C (second compound 1 µM, first compound 0.001 µM) 0.5% | viability, T/C (second compound 1 µM, first compound 0.00316 µM) 0.55% | viability, T/C (second compound 1 µM, first compound 0.01 µM) 0.33% | viability, T/C [13] 0.32% | viability, T/C [14] 2.32% | viability, T/C (second compound 3.16 µM, first compound 0.000316 µM) 0.36% | viability, T/C (second compound 3.16 µM, first compound 0.001 µM) 0.46% | viability, T/C (second compound 3.16 µM, first compound 0.00316 µM) 1.75% | viability, T/C (second compound 3.16 µM, first compound 0.01 µM) 0.59% | viability, T/C [15] 0.66% | viability, T/C [16] 0.41% | viability, T/C (second compound 10 µM, first compound 0.000316 µM) 0.27% | viability, T/C (second compound 10 µM, first compound 0.001 µM) 1.75% | viability, T/C (second compound 10 µM, first compound 0.00316 µM) 0.83% | viability, T/C (second compound 10 µM, first compound 0.01 µM) 0.22% | viability, T/C [17] 2.44% | viability, T/C [18] 2.04%

Nc1ccccc1NC(=O)c1ccc(CNC(=O)OCc2cccnc2)cc1 + CN1CCN(c2cc(C(=O)Nc3cc4cc(-c5cnn(C)c5)ccc4cn3)ccn2)CC1
4300 nM: IC50 [1]
4370 nM: IC50 [2]
< 31.6 nM: IC50 [3] | IC50 [4] | IC50 [5] | IC50 [6]
active: viability, T/C (second compound 0.0316 µM, first compound 10 µM) 0.89% | viability, T/C (second compound 0.1 µM, first compound 10 µM) 0.6% | viability, T/C [11] 6.28% | viability, T/C [12] 4.96% | viability, T/C (second compound 0.316 µM, first compound 0.316 µM) 4.64% | viability, T/C (second compound 0.316 µM, first compound 1 µM) 3.64% | viability, T/C (second compound 0.316 µM, first compound 3.16 µM) 2.12% | viability, T/C (second compound 0.316 µM, first compound 10 µM) 0.13% | viability, T/C [13] 0.53% | viability, T/C [14] 0.32% | viability, T/C (second compound 1 µM, first compound 0.316 µM) 0.35% | viability, T/C (second compound 1 µM, first compound 1 µM) 0.18% | viability, T/C (second compound 1 µM, first compound 3.16 µM) 0.21% | viability, T/C (second compound 1 µM, first compound 10 µM) 0.21% | viability, T/C [15] 0.5% | viability, T/C [16] 0.4% | viability, T/C (second compound 3.16 µM, first compound 0.316 µM) 0.39% | viability, T/C (second compound 3.16 µM, first compound 1 µM) 0.21% | viability, T/C (second compound 3.16 µM, first compound 3.16 µM) 0.2% | viability, T/C (second compound 3.16 µM, first compound 10 µM) 1.32% | viability, T/C [17] 0.22% | viability, T/C [18] 0.23% | viability, T/C (second compound 10 µM, first compound 0.316 µM) 0.27% | viability, T/C (second compound 10 µM, first compound 1 µM) 0.22% | viability, T/C (second compound 10 µM, first compound 3.16 µM) 0.24% | viability, T/C (second compound 10 µM, first compound 10 µM) 1.53%
inactive: viability, T/C [7] 105% | viability, T/C [8] 101% | viability, T/C (second compound 0.0316 µM, first compound 0.316 µM) 94.3% | viability, T/C (second compound 0.0316 µM, first compound 1 µM) 81.4% | viability, T/C (second compound 0.0316 µM, first compound 3.16 µM) 73.2% | viability, T/C [9] 77.5% | viability, T/C [10] 78.9% | viability, T/C (second compound 0.1 µM, first compound 0.316 µM) 80.3% | viability, T/C (second compound 0.1 µM, first compound 1 µM) 69.2% | viability, T/C (second compound 0.1 µM, first compound 3.16 µM) 69.4%

CC1COCCN1c1cc(C2(S(C)(=N)=O)CC2)nc(-c2ccnc3[nH]ccc23)n1 (stereo not drawn)
5360 nM and 7190 nM: IC50 (curve of compound)
inactive: viability, T/C (compound 0.0316 µM) 119% and 107% | viability, T/C (compound 0.1 µM) 105% and 97.9% | viability, T/C (compound 0.316 µM) 85.5% and 91% | viability, T/C (compound 1 µM) 94.4% and 89.3% | viability, T/C (compound 3.16 µM) 57.5% and 62% | viability, T/C (compound 10 µM) 36% and 44.6%

CCN1CCN(Cc2ccc(Nc3ncc(F)c(-c4cc(F)c5nc(C)n(C(C)C)c5c4)n3)nc2)CC1
> 1000 nM: IC50 (curve of compound)
inactive: viability, T/C (compound 0.00316 µM) 102% and 112% | viability, T/C (compound 0.01 µM) 93.9% and 90.8% | viability, T/C (compound 0.0316 µM) 87.1% and 90.3% | viability, T/C (compound 0.1 µM) 82.4% and 97.8% | viability, T/C (compound 0.316 µM) 90.3% and 92.8% | viability, T/C (compound 1 µM) 96.5% and 103%
